In test [1] the test system is U2OS/PD-L1 cells and Jurkat-PD-1-SHP cells. Nature of the test: Src homology region 2 domain-containing phosphatase (SHP) assay. The note with it: Homo sapiens, U2OS; PathHunter chemiluminescence, 2 hours. The test is classed as cell-based. As for the experimental part:
U2OS/PD-L1 cells (DiscoveRx Corporation) were maintained in McCoy's 5A medium with addition of 10% FBS, 0.25 μg/mL Puromycin. After removing the culture media, the cell medium was replaced with assay medium (RPMI1640 medium with 1% FBS). The U2OS/PD-L1 cells were then added in 384-well black clear bottom assay plate (CELLCOAT® Tissue Culture Plates, Greiner Bio-One) at 5000 cells per well in 20 μL assay medium. Test compounds were prepared by serial dilution in DMSO and 125 nL compound were first transferred to the 384 REMP plate well (Thermofisher) by ECHO liquid handler (Labcyte) followed with addition of 27.5 μL assay medium. 5 µL/well compounds in the assay medium were transferred to the cell plate with 0.05% DMSO in the final assay at 0.25 μM. Jurkat-PD-1-SHP cells (DiscoveRx Corporation) were cultured in RPMI1640 medium supplemented with 10% FBS, 250 μg/mL Hygromycin B, 500 μg/mL G418. After the replacement of culture media with assay medium, 5,000 Jurkat-PD-1-SHP cells in 20 μL were dispensed into each well. The assay plate was incubated at 37° C., 5% CO2 for 2 hours before 2.5 μL PathHunter reagent 1 (DiscoveRx Corporation) were added to each well. The assay plate was shaken for 1 min at 350 rpm in the dark followed with addition of 10 μL PathHunter reagent 2 (DiscoveRx Corporation). Chemiluminescent signal was recorded with TopCount reader (Perkin Elmer) after incubation at room temperature for 1 hour. Wells with DMSO were served as the positive controls and wells containing no cells were used as negative controls. IC50 determination was performed by fitting the curve of percentage of control activity versus the log of the compound concentration using the GraphPad Prism 6.0 software.

In test [2] the test system is PD-L1 aAPC/CHO-K1 cells and Jurkat-PD-1-NFAT effector cells. Nature of the test: Nuclear factor of activated T-cells (NFAT) assay. The note with it: Cricetulus griseus, CHO-K1; luminescence, 24 hours. The test is classed as cell-based. The procedure: PD-L1 aAPC/CHO-Klcells (Promega) were maintained in F-12 medium with addition of 10% FBS, 200 μg/mL Hygromycin B, 250 μg/mL Geneticin (G418). Jurkat-PD-1-NFAT effector cells (Promega) were cultured in RPMI 1640 medium supplemented with 10% FBS, 100 μg/mL Hygromycin B, 500 μg/mL G418. The culture media of PD-L1 aAPC/CHO-K1 cells were first replaced with assay medium (RPMI1640 medium with 1% FBS). The PD-L1 aAPC/CHO-Klcells were then added in a white 384-well white clear bottom assay plate (CELLCOAT® Tissue Culture Plates, Greiner Bio-One) at 8000 per well in 10 μL assay medium. Test compounds were prepared by serial dilution in DMSO and 0.8 μL test compounds in DMSO were first transferred to the 384 REMP plate well (Thermofisher) by PlateMate Plus (Thermofisher) followed with addition of 50 μL plating medium. 5 μL compounds in the assay medium were transferred to the cells with 0.4% DMSO in the final assay at 2 μM. After removing the culture media, 10,000 Jurkat-PD-1-NFAT effector cells in 5 μL assay medium was dispensed into each well. The assay plate was incubated at 37° C., 5% CO2 for 24 hours. After the assay plate was equilibrated to room temp for 15 minutes, 20 μL/well of Bio-Glo™ reagent (Promega) were added. After 8 minutes incubation at room temperature, luminescence was read at with Pherastar microplate reader (BMG Labtech). The fold of induction (FOI) was calculated based on the ratio of luminescence normalized to the DMSO wells within each assay plate. The maximum percentage of induction was reported based on the ratio between the highest FOI of each compound and the maximum FOI of control compound within each assay plate. Wells with DMSO were served as the negative controls and wells containing control compound with the highest FOI were used as positive controls. EC50 determination was performed by fitting the curve of percent control activity versus the log of the compound concentration using the GraphPad Prism 6.0 software.

In test [3] the target is PD-L1 (Homo sapiens (Human), UniProt Q9NZQ7). Nature of the test: PD-L1 whole blood internalization assay. It counts as cell-based. Particulars: PD-L1 internalization in human whole blood, CD14+ cells, interferon γ, 24 hour. The procedure: To determine PD-L1 internalization in human whole blood, normal human blood (Biological Specialty Corp, Colmar. Pa.) was incubated in the presence or absence of a concentration range of test compounds and 1 ng/mL human interferon γ (R&D Systems Inc. Minn. […] Blood was then stained with PD-L1 (MIH1, eBioscience; or BD Biosciences San Jose, Calif.), CD14 (Life Technologies, Carlsbad, Calif.) for 30 minutes in the dark at room temperature. Whole Blood/red cells were lysed/fixed (lysis buffer BD Biosciences) for 5 minutes at 37° C. in the dark and then centrifuged at 1600 RPM for 5 minutes. Cells were resuspended in Stain Buffer (BD Bioscience, San Jose, Calif.) and transferred into 96 well round bottom plates (Corning). Cells were gated on CD14+(BD Biosciences) and PD-L1 expression determined by mean fluorescence intensity (MFI) (BD LSRFortessa™ X-20). IC50 determination was performed by fitting the curve of compound percent inhibition versus the log of the compound concentration using the GraphPad Prism 7.0 software.
Chain of PD-L1 (Q9NZQ7 19-290): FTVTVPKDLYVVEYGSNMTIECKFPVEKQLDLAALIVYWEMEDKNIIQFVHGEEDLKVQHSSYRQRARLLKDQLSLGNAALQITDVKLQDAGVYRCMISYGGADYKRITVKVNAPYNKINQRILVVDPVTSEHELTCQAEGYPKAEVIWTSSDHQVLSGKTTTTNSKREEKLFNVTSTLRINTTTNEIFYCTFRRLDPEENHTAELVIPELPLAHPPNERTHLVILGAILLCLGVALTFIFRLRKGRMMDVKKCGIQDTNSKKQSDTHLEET

Test [4] has as its target PD-1/PD-L1 (Homo sapiens (Human), UniProt Q9NZQ7). Nature of the test: Homogeneous Time-Resolved Fluorescence (HTRF) PD-1/PD-L1 binding assay. Particulars: recombinant human PD-1 and PD-L1. As for the experimental part:
The assays were conducted in a standard black 384-well polystyrene plate with a final volume of 20 μL. Inhibitors were first serially diluted in DMSO and then added to the plate wells before the addition of other reaction components. The final concentration of DMSO in the assay was 1%. The assays were carried out at 25° C. in the PBS buffer (pH 7.4) with 0.05% Tween-20 and 0.1% BSA. Recombinant human PD-L1 protein (19-238) with a His-tag at the C-terminus was purchased from AcroBiosystems (PD1-H5229). Recombinant human PD-1 protein (25-167) with Fc tag at the C-terminus was also purchased from AcroBiosystems (PD1-H5257). PD-L1 and PD-1 proteins were diluted in the assay buffer and 10 μL was added to the plate well. Plates were centrifuged and proteins were preincubated with inhibitors for 40 minutes. The incubation was followed by the addition of 10 μL of HTRF detection buffer supplemented with Europium cryptate-labeled anti-human IgG (PerkinElmer-AD0212) specific for Fc and anti-His antibody conjugated to SureLight®-Allophycocyanin (APC, PerkinElmer-AD0059H). After centrifugation, the plate was incubated at 25° C. for 60 min. before reading on a PHERAstar FS plate reader (665 nm/620 nm ratio). Final concentrations in the assay were—3 nM PD1, 10 nM PD-L1, 1 nM europium anti-human IgG and 20 nM anti-His-Allophycocyanin. IC50 determination was performed by fitting the curve of percent control activity versus the log of the inhibitor concentration using the GraphPad Prism 5.0 software.
(Time-resolved FRET reads energy transfer from a long-lived donor to a nearby acceptor.)

Chain of PD-1/PD-L1 (Q9NZQ7 19-238): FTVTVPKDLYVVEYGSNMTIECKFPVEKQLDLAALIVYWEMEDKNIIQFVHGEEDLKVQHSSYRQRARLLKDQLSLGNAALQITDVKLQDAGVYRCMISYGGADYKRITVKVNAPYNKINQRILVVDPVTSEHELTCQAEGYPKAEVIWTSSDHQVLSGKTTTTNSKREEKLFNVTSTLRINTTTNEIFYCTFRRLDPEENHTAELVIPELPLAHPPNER

`Cc1c(Nc2nc(C(F)F)nc3cc(CN[C@@H]4CCC[C@@H]4O)cnc23)cccc1-c1cccc(NC(=O)c2nc3c(n2C)CCN(CCC24CCC(C(=O)O)(CC2)C4)C3)c1Cl` [Example 9, 4-(2-(2-((2-chloro-3′-((2-(difluoromethyl)-7-((((1R,2S)-2-hydroxycyclopentyl)amino)methyl)pyrido[3,2-d]pyrimidin-4-yl)amino)-2′-methyl-[1,1′-biphenyl]-3-yl)carbamoyl)-1-methyl-1,4,6,7-tetrahydro-5H-imidazo[4,5-c]pyridin-5-yl)ethyl)bicyclo[2.2.1]heptane-1-carboxylic Acid]: the concentration for half-maximal inhibition (IC50) in test [1] amounted to 4 nM; in test [3], 6.4 nM; in test [4], 1.7 nM. A half-maximal response in test [2] (EC50) required 3 nM.

Turning to `Cc1c(Nc2nc(C(F)F)nc3cc(CN4C[C@H](O)C[C@@H]4C)cnc23)cccc1-c1cccc(NC(=O)c2nc3c(n2C)CCN(CCC24CCC(C(=O)O)(CC2)C4)C3)c1Cl` [Example 10, 4-(2-(2-((2-chloro-3′-((2-(difluoromethyl)-7-(((2S,4R)-4-hydroxy-2-methylpyrrolidin-1-yl)methyl)pyrido[3,2-d]pyrimidin-4-yl)amino)-2′-methyl-[1,1′-biphenyl]-3-yl)carbamoyl)-1-methyl-1,4,6,7-tetrahydro-5H-imidazo[4,5-c]pyridin-5-yl)ethyl)bicyclo[2.2.1]heptane-1-carboxylic Acid], the 50% inhibitory concentration (IC50) was found to be 4 nM in test [1], 35 nM in test [3] and 1.5 nM in test [4]. For the same compound, the response in test [2] was half-maximal at 4 nM (EC50).

Consider `Cc1c(Nc2nc(C(F)F)nc3cc(CN4C[C@H](O)C[C@H]4C)cnc23)cccc1-c1cccc(NC(=O)c2nc3c(n2C)CCN(CCC24CCC(C(=O)O)(CC2)C4)C3)c1Cl` [Example 11, 4-(2-(2-((2-chloro-3′-((2-(difluoromethyl)-7-(((2R,4R)-4-hydroxy-2-methylpyrrolidin-1-yl)methyl)pyrido[3,2-d]pyrimidin-4-yl)amino)-2′-methyl-[1,1′-biphenyl]-3-yl)carbamoyl)-1-methyl-1,4,6,7-tetrahydro-5H-imidazo[4,5-c]pyridin-5-yl)ethyl)bicyclo[2.2.1]heptane-1-carboxylic Acid], for which the figures for the concentration for half-maximal inhibition (IC50) in test [1], in test [3] and in test [4] were 3 nM, 27 nM and 1.5 nM, respectively. Moreover, in test [2], the response was half-maximal at 5 nM (EC50).

For `Cc1c(Nc2nc(C(F)F)nc3cc(CN4C[C@@H](O)C[C@H]4C)cnc23)cccc1-c1cccc(NC(=O)c2nc3c(n2C)CCN(CCC24CCC(C(=O)O)(CC2)C4)C3)c1Cl` [Example 12, 4-(2-(2-((2-chloro-3′-((2-(difluoromethyl)-7-(((2R,4S)-4-hydroxy-2-methylpyrrolidin-1-yl)methyl)pyrido[3,2-d]pyrimidin-4-yl)amino)-2′-methyl-[1,1′-biphenyl]-3-yl)carbamoyl)-1-methyl-1,4,6,7-tetrahydro-5H-imidazo[4,5-c]pyridin-5-yl)ethyl)bicyclo[2.2.1]heptane-1-carboxylic Acid], the results for the IC50 in test [1], in test [3] and in test [4] were 3 nM, 30 nM and 1.5 nM, respectively. Further, the EC50 in test [2] worked out at 41 nM.

With `Cc1c(Nc2nc(C(F)F)nc3cc(CN4CC(O)C4)cnc23)cccc1-c1cccc(NC(=O)c2nc3c(n2C)CCN(CCC24CCC(C(=O)O)(CC2)C4)C3)c1Cl` [Example 13, 4-(2-(2-((2-chloro-3′-((2-(difluoromethyl)-7-((3-hydroxyazetidine-1-yl)methyl)pyrido[3,2-d]pyrimidin-4-yl)amino)-2′-methyl-[1,1′-biphenyl]-3-yl)carbamoyl)-1-methyl-1,4,6,7-tetrahydro-5H-imidazo[4,5-c]pyridin-5-yl)ethyl)bicyclo[2.2.1]heptane-1-carboxylic Acid], the half-inhibitory concentration (IC50) in test [1] was 3 nM; in test [3] it was 24 nM; in test [4] it was 1.8 nM. In test [2], this compound registered a concentration giving a half-maximal response (EC50) of 3 nM.

For the compound `Cc1c(Nc2nc(C(F)F)nc3cc(CN4CC(C)(O)C4)cnc23)cccc1-c1cccc(NC(=O)c2nc3c(n2C)CCN(CCC24CCC(C(=O)O)(CC2)C4)C3)c1Cl` [Example 14, 4-(2-(2-((2-chloro-3′-((2-(difluoromethyl)-7-((3-hydroxy-3-methylazetidin-1-yl)methyl)pyrido[3,2-d]pyrimidin-4-yl)amino)-2′-methyl-[1,1′-biphenyl]-3-yl)carbamoyl)-1-methyl-1,4,6,7-tetrahydro-5H-imidazo[4,5-c]pyridin-5-yl)ethyl)bicyclo[2.2.1]heptane-1-carboxylic Acid], the half-inhibitory concentration (IC50) in test [1] is 3 nM; in test [3] it was 20 nM; in test [4] it was 1.7 nM. Also, in test [2], the EC50 worked out at 3 nM.

Regarding `Cc1c(NC(=O)c2nc3c(n2C)CCN(CCC24CCC(C(=O)O)(CC2)C4)C3)cccc1-c1cccc(Nc2nc(C(F)F)nc3cc(CN4CC[C@H](O)C4)cnc23)c1C` [Example 15, (S)-4-(2-(2-((3′-((2-(difluoromethyl)-7-((3-hydroxypyrrolidin-1-yl)methyl)pyrido[3,2-d]pyrimidin-4-yl)amino)-2,2′-dimethyl-[1,1′-biphenyl]-3-yl)carbamoyl)-1-methyl-1,4,6,7-tetrahydro-5H-imidazo[4,5-c]pyridin-5-yl)ethyl)bicyclo[2.2.1]heptane-1-carboxylic Acid], the IC50 in test [1] was found to be 2.9 nM; in test [3], 57 nM; in test [4], 1.5 nM. Also, the concentration giving a half-maximal response (EC50) in test [2] was found to be 9 nM.

What is called IC50 is the concentration that inhibits the measured activity by half. One may read the EC50 as the concentration needed to bring the measured effect to its halfway point. Low readings indicate greater potency, high ones weaker potency.

These data come from patent publication US11401279B2, “Pyrido[3,2-d]pyrimidine compounds as immunomodulators” (Incyte Corporation, priority 2019, dated 2022).
